Measured values from patent US20070173499A1 (priority 2004, published 2007).
Where two headings read alike, the source gives them in different places.

Legend:
5-HT2C receptor = biological target: T1, 5-HT2C receptor (Homo sapiens, UniProt P28335); experiment: radioligand binding assay for 5-HT2C receptor ([3H]-mesulergine)
T1 construct: expressed in transfected cells; host or cells: CHO-K1 (or COS-7); alternatively choroid plexus tissue
T1 sequence (P28335 33-458): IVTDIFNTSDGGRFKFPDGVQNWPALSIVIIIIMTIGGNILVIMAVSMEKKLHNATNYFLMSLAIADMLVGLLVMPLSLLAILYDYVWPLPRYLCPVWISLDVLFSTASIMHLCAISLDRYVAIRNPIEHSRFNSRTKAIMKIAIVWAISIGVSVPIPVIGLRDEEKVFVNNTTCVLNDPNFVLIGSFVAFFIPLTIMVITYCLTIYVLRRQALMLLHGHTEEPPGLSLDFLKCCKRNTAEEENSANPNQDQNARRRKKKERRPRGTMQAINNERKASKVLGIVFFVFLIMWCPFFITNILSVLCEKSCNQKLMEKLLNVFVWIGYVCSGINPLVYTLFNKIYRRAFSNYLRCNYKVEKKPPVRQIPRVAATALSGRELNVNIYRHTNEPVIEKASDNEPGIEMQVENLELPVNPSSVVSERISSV
Experimental: (§1) The effect of the compounds of the present invention on the neurochemical steady state was determined by in vitro investigations such as a radionuclide-marked radioligand binding assay for 5-HT2A (Bonhaus D. W. Br. J. Pharmacol. 1995, 115:622; Saucier C. J. Neurochem. 1997, 68:1998) and 5-HT2C receptors (Wolf W. A. J. Neurochem. 1997, 69:1449), in vitro binding assay for σ1 receptor (Thomson W. and Donn R. Arthritis Res. 2002, 4: 302-306) and by in vivo investigations in a tail suspension test (Vogel H. G. and Vogel W. H. Drug Discovery and Evaluation Pharmacological Assays, Springer 1997, 304), in amphethamine-induced hyperlocomotion in mice (Millan M. J. et al, 1998 J Pharmacol. Exp. Ther. 287: 167-186), in a forced swim test in mice (Porsolt R. D. et al. Arch. Int. Pharmacodyn. 1977, 229:327-336), in meta-chlorophenyl piperazine (m-CPP) test on rats (Drug Dev. Res. 1989, 18:119-144), and in apomorphine, tryptamine and norepinephrine (ATN) test in rats (Arch. Int. Pharmacodyn. 1977, 227:238-253).
(§2) A small concentration of a radioligand having a great affinity for binding to a receptor was incubated with a tissue sample enriched with a certain receptor (1-5 mg of tissue) in a buffered medium (0.2-5 mL). Recombinant human HT2A and HT2C receptors were expressed in CHO-K1 or COS-7 cells and were also used for competitive binding. During incubation the radioligand bound to the receptor. When a binding balance was achieved, the receptors to which the radioligand was bound were separated from those to which said ligand was not bound, and the radioactivity of the receptor/radioligand complex was measured. The interaction of the tested compounds with receptors was tested in competitive binding experiments. Various concentrations of tested compounds were added to the incubation mixture containing a prepared tissue enriched with corresponding receptors and the radioligand. The radioligand binding was inhibited by the test compounds proportionally to the affinity of a certain compound for the receptor and to the concentration of the compound.
(§3) The radioligand used for the determination of binding to 5-HT2A receptor was [^3H]-ketanserin and the tissue used was human cortex or recombinant 5-HT2A receptor expressed in CHO-K1 cells. The radioligand used for the determination of binding to 5-HT2C receptor was [^3H]-mesulergine and the tissue used was choroid plexus or recombinant 5-HT2C receptor expressed in CHO-K1 cells.

5-HT2A receptor = biological target: T2, 5-HT2A receptor (Homo sapiens, UniProt P28223); experiment: radioligand binding assay for 5-HT2A receptor ([3H]-ketanserin)
T2 construct: expressed in transfected cells; host or cells: CHO-K1 (or COS-7); alternatively human cortex tissue
T2 sequence (P28223 whole entry): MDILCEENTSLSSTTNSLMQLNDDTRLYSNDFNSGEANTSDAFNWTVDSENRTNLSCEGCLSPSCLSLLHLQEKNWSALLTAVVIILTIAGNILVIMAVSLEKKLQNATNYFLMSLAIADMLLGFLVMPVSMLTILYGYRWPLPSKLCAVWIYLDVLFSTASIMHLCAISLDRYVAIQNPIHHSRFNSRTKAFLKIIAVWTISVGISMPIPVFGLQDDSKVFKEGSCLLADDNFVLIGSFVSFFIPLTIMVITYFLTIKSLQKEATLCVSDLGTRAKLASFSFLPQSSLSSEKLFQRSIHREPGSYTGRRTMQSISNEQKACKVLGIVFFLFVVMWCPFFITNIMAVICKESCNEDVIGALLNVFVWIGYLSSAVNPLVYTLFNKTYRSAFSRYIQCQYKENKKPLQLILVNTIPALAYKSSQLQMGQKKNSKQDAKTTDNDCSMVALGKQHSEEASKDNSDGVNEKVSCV
Experimental: as §1, §2, §3

σ1 receptor = biological target: T3, σ1 receptor (Homo sapiens, UniProt Q99720); experiment: in vitro binding assay for σ1 receptor, Jurkat cell membranes, [3H]haloperidol; details: [3H]haloperidol 10 nM
T3 construct: endogenous in cells; host or cells: Jurkat cells (membrane fraction)
T3 sequence (Q99720 whole entry): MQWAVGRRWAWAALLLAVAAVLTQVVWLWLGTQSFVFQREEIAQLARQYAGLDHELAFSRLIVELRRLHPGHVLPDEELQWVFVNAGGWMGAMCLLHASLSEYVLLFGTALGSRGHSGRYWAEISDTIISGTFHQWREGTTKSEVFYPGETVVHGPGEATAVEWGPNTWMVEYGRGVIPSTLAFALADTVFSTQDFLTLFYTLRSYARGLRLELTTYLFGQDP
Experimental: as §1, with “227:238-253). […]” for “227:238-253).”
Binding of different radiolabeled ligans to Jurkat cell membranes was measured as described previously (Ramamoorthy et al., 1995). […]
Membranes were incubated with ligands in phosphate buffer for 3 hours at room temperature. After filter had been washed, radioactivity associated with the filter was determined by liquid scintillation spectrometry.

For CN(C)CCCOCc1cc2c(s1)-c1cc3ccccc3cc1Sc1ccccc1-2, the IC50 (5-HT2C receptor) was < 200 nM, the Ki (5-HT2C receptor) was < 100 nM and the IC50 (5-HT2A receptor) was < 200 nM. The Ki (5-HT2A receptor) was < 100 nM.

In the case of CC(CN(C)C)OCc1cc2c(s1)-c1cc3c(cc1Oc1ccccc1-2)CCCC3 (stereo not shown) [dimethyl-[2-(10,11,12,13-tetrahydro-8-oxa-1-thia-benzo[e]naphtho[3,2-h]azulen-2-ylmethoxy)-propyl]-amine], the IC50 (σ1 receptor; read-out: binding affinity to σ1 receptor expressed as IC50) is reported as < 200 nM and the Ki (σ1 receptor; read-out: binding affinity to σ1 receptor, Ki) is reported as < 100 nM.

For CN(C)CCCOCc1cc2c(s1)-c1ccc3ccccc3c1Sc1ccccc1-2 [dimethyl-[3-(3,10-dithia-benzo[e]naphtho[1,2-h]azulen-2-ylmethoxy)-propyl]-amine], the IC50 (5-HT2C receptor; [3H]-mesulergine, choroid plexus or recombinant 5-HT2C receptor in CHO-K1 cells, read-out: binding affinity to 5-HT2C serotonin receptor expressed as IC50) was < 200 nM, the Ki (5-HT2C receptor; [3H]-mesulergine, choroid plexus or recombinant 5-HT2C receptor in CHO-K1 cells, read-out: binding affinity to 5-HT2C serotonin receptor, Ki) was < 100 nM and the IC50 (5-HT2A receptor; [3H]-ketanserin, human cortex or recombinant 5-HT2A receptor in CHO-K1 cells, read-out: binding affinity to 5-HT2A serotonin receptor expressed as IC50) was < 200 nM. For the same compound, the Ki (5-HT2A receptor; [3H]-ketanserin, human cortex or recombinant 5-HT2A receptor in CHO-K1 cells, read-out: binding affinity to 5-HT2A serotonin receptor, Ki) was < 100 nM.
